Our source for the GI50 and TGI values is PubChem BioAssay (NCI).

Common to all, as to assay: inhibition of tumour cell growth, NCI panel, 48 h
For test [1], the system named is T-47D breast.
Test [2] has as its system MDA-MB-231 breast.
Test [3] has as its system EKVX NSCLC.
Test [4] deals with KM12 colon.
Test [5] concerns 786-0 renal.
In test [6] the test system is MCF7 breast.
For test [7], the system named is SNB-19 CNS.
Test [8] has as its system MALME-3M melanoma.
Test [9] has as its system TK-10 renal.
In test [10] the test system is SK-MEL-2 melanoma.

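Dose response: 5 concentrations. Exposure: 48 h. Format: 96-well plates. Endpoint: linear interpolation; highest concentration if not reached. Here, GI50 denotes the concentration required for 50% inhibition of growth. Definition used: TGI = concentration required for complete inhibition of growth.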

Regarding `NC(=NCc1ccccc1)C(N=Nc1ccccc1)C(=O)NCc1ccccc1` (stereo not given), the GI50 in [1] is 13.6 µM; in [2] it was 14.4 µM; in test [3], 4490 nM; in test [4], 2040 nM; in test [5] it was 12.1 µM; in test [6], 12 µM. Moreover, the GI50 is 13.2 µM in test [7] and 21.5 µM in [8]. In addition, the TGI in [1] amounted to 35.4 µM; in test [2] it was 35.2 µM; in test [3] it was 23.5 µM; in [4], 4.65 µM; in test [5], 30 µM; in test [6], 32 µM. Further, the TGI in [7] was determined as 31.5 µM; in test [8], 48.2 µM.
With `COc1c(C)cc2c(C(C)C)c(O)c(O)c(C=O)c2c1O`, the TGI in test [3] was 95.1 µM; in test [4], 56.1 µM; in test [5], more than 100 µM; in test [7], more than 100 µM; in [9] it was more than 100 µM; in [10], 37.1 µM. The TGI in [8] was 38.7 µM.
Consider `COc1cc(-c2nccc3cc(OC)c(OC)cc23)ccc1O`, for which the TGI in [3], in test [4], in test [5], in [7], in test [9] and in test [10] was more than 100 µM throughout. Further, the TGI in test [8] is more than 100 µM.
On to `N#Cc1ccc(Cc2ccccn2)cc1Cl`, for which the TGI in [3], in test [4], in test [5], in [7], in test [9] and in [10] was more than 100 µM throughout. Further, the TGI in test [8] was more than 100 µM.
Take `CCOC(=O)C(=O)Nc1nc2c(OCC)cccc2s1`: the TGI in test [3], in test [4], in [5], in test [7], in test [9] and in test [10] was more than 100 µM throughout. For the same molecule, the TGI in test [8] was more than 100 µM.
In the case of `CC(CCC[C@H](C)CO)[C@H]1[C@@H](O)C(O)C2[C@@H]3C[C@@H](O)C4(O)C[C@@H](O)CC[C@]4(C)C3CC[C@@]21C` (stereo not given in full), the TGI in test [3], in [4], in test [5], in test [7], in test [9] and in [10] was more than 100 µM throughout. The same molecule showed a TGI in [8] of more than 100 µM.
For the molecule `Cc1ccc(-c2nc3ccccc3c(=O)n2NCC2(O)OCC(O)C(O)C2O)cc1` (stereo not given), the TGI in [3], in [4], in test [5], in [7], in test [10] and in test [8] was more than 100 µM in each case.
For the molecule `CC(CC(=O)N1C(=O)C(C)(C)[C@@H](O)[C@H]1CC(C)C(Cl)(Cl)Cl)C(Cl)(Cl)Cl` (stereo not given in full), the TGI in [3], in [4], in test [5], in [7], in test [9] and in test [8] was more than 100 µM throughout.
For `O=S(=O)(CCN1CCOCC1)Nc1cc(-c2ccc3ncnc(Nc4ccc(F)c(Cl)c4)c3c2)cnc1Cl`, the GI50 is 0.07 µM in test [1]; 1.09 µM in test [2]; 282 nM in test [3]; 2640 nM in test [4]; 0.41 µM in test [5]; 0.335 µM in test [6]. Moreover, the GI50 is 0.453 µM in [7] and 0.115 µM in test [8]. For the same molecule, the TGI was 0.975 µM in test [1]; 4.82 µM in test [2]; 3.64 µM in [3]; 24 µM in test [4]; more than 100 µM in test [5]; 22.9 µM in test [6]. Moreover, the figures for the TGI in test [7] and in [8] were 4.85 µM and 0.93 µM, respectively.
Take `C[C@]12CCC(=O)C(OC(=O)c3ccc([N+](=O)[O-])cc3)=C1CCC2=O`: the TGI in test [3], in test [4], in test [5], in [7], in test [9] and in test [8] was more than 100 µM in each case.
For the molecule `CO[C@@H]1C=C[C@@]23c4cc5c(cc4CN(C[C@@H]2O)[C@H]3C1)OCO5`, the TGI in test [3] was more than 100 µM; in test [4], more than 100 µM; in test [5], more than 100 µM; in test [7] it was more than 100 µM; in [9], more than 100 µM; in [10], 49.2 µM. The molecule also showed a TGI in [8] of 76 µM.
For `CCOC(=O)C(=O)C=P(c1ccccc1)(c1ccccc1)c1ccccc1`, the TGI in [3], in test [4], in test [5], in [7], in test [9] and in test [10] was more than 100 µM in each case. This molecule registered a TGI in [8] of more than 100 µM.
For `CC(=O)OC(CC1(C)C(C)CCC23COC(=O)C2=CCCC31)c1ccoc1` (stereo not given), the TGI was 97.6 µM in test [3]; 67.4 µM in test [4]; 32.2 µM in [5]; 82.9 µM in test [7]; 49.7 µM in test [10]; 55.2 µM in test [8].
`CCOC(=O)Cn1c2ccccc2c(=O)c2cc(C)c(C)c(C#N)c21`: the TGI in [3], in [5], in test [7], in test [9], in test [10] and in test [8] was more than 100 µM in each case.
For `Cc1cccc(-n2c(N)c(-c3nc4ccccc4[nH]3)sc2=S)c1`, the TGI is 82.7 µM in test [3]; 52.2 µM in test [4]; 54.1 µM in [5]; more than 100 µM in test [7]; 68.5 µM in test [9]; 62.3 µM in test [10]. Also, in test [8], the TGI came to 74.4 µM.
Take `COC(OC)c1cc2c(cc1C=O)OCO2`: the TGI in test [3], in test [4], in test [5], in test [7], in test [9] and in test [10] was more than 100 µM throughout. The molecule also came in with a TGI in test [8] of 96.5 µM.
